# Results from patent publication US20230033285A1, “Protease Inhibitors for Treatment of Coronavirus Infections” (The Scripps Research Institute, priority 2021, published 2023).
# System: SARS-CoV-2
# Experiment: microbe, parasite or virus in culture
# Type: cell-based
# Conditions: Severe acute respiratory syndrome coronavirus 2, HeLa-ACE2, 24 h, read-out: EC50, μM (Hela)
row,Compound,EC50 [µM]
1,"CC(C)(C)[C@H](NC(=O)C(F)(F)F)C(=O)N1C[C@H]2[C@@H]([C@H]1C(=O)N[C@H](C=O)C[C@@H]1CCCNC1=O)C2(C)C [Compound 132, (1R,2S,5S)-3-((S)-3,3-dimethyl-2-(2,2,2-trifluoroacetamido)butanoyl)-6,6-dimethyl-N-((S)-1-oxo-3-((S)-2-oxopiperidin-3-yl)propan-2-yl)-3-azabicyclo[3.1.0]hexane-2-carboxamide]",0.5 to 1
2,"CC(C)C[C@H](NC(=O)C(=O)NC1CCCCC1)C(=O)N[C@@H](C[C@@H]1CCNC1=O)C(=O)CO [Compound 14, N^1-cyclohexyl-N^2-((S)-1-(((S)-4-hydroxy-3-oxo-1-((S)-2-oxopyrrolidin-3-yl)butan-2-yl)amino)-4-methyl-1-oxopentan-2-yl)oxalamide]",> 1

# Same assay, conditions: Severe acute respiratory syndrome coronavirus 2; HeLa-ACE2 cells infected with SARS-CoV-2, 24 h, immunofluorescence of infected cells; read-out: EC50, μM (Hela)
row,Compound,EC50 [µM]
1,"CC(C)(C)C[C@H](NC(=O)C(=O)Nc1ccccc1C(C)(C)C)C(=O)N[C@@H](C[C@@H]1CCCNC1=O)C(=O)CO [Compound 100, N^1-(2-(tert-butyl)phenyl)-N^2-((S)-1-(((S)-4-hydroxy-3-oxo-1-((S)-2-oxopiperidin-3-yl)butan-2-yl)amino)-4,4-dimethyl-1-oxopentan-2-yl)oxalamide]",< 0.05
2,"Cc1cccc(C)c1NC(=O)C(=O)N[C@@H](CC(C)C)C(=O)NC(C[C@@H]1CCNC1=O)C(=O)CO (stereo partly drawn) [Compound 13, N^1-(2,6-dimethylphenyl)-N^2-((2S)-1-((4-hydroxy-3-oxo-1-((S)-2-oxopyrrolidin-3-yl)butan-2-yl)amino)-4-methyl-1-oxopentan-2-yl)oxalamide]",0.2 to 0.5
3,CC(C)(C)C[C@H](NC(=O)C(=O)Nc1ccccc1OC(F)(F)F)C(=O)N[C@@H](CC1CCCNC1=O)C(=O)CO (stereo partly shown) [Compound 98],< 0.05
4,"O=C(Nc1ccccc1F)C(=O)N1C[C@@H]2CCC[C@@H]2[C@H]1C(=O)N[C@@H](C[C@@H]1CCNC1=O)C(=O)CO [Compound 30, (1S,3aR,6aS)-2-(2-((2-fluorophenyl)amino)-2-oxoacetyl)-N-((S)-4-hydroxy-3-oxo-1-((S)-2-oxopyrrolidin-3-yl)butan-2-yl)octahydrocyclopenta[c]pyrrole-1-carboxamide]",0.05 to 0.2
5,"CCc1cccc(CC)c1NC(=O)C(=O)N[C@@H](CC(C)C)C(=O)N[C@@H](C[C@@H]1CCNC1=O)C(=O)CO [Compound 17, N^1-(2,6-diethylphenyl)-N^2-((S)-1-(((S)-4-hydroxy-3-oxo-1-((S)-2-oxopyrrolidin-3-yl)butan-2-yl)amino)-4-methyl-1-oxopentan-2-yl)oxalamide]",< 0.05
6,"CC(C)(C)C[C@H](NC(=O)C(=O)NC12CC(F)(C1)C2)C(=O)N[C@@H](C[C@@H]1CCCNC1=O)C(=O)CO [Compound 94, N^1-(3-fluorobicyclo[1.1.1]pentan-1-yl)-N^2-((S)-1-(((S)-4-hydroxy-3-oxo-1-((S)-2-oxopiperidin-3-yl)butan-2-yl)amino)-4,4-dimethyl-1-oxopentan-2-yl)oxalamide]",0.05 to 0.2
7,"CCCCCCC(=O)OCC(=O)[C@H](C[C@@H]1CCNC1=O)NC(=O)[C@H](CC(C)C)NC(=O)c1cc2ccccc2[nH]1 [Compound 118, (S)-3-((S)-2-(1H-indole-2-carboxamido)-4-methylpentanamido)-2-oxo-4-((S)-2-oxopyrrolidin-3-yl)butyl heptanoate]",0.05 to 0.2
8,"N#C[C@H](C[C@@H]1CCNC1=O)NC(=O)[C@@H]1CC2(CC2)CN1C(=O)C(=O)Nc1ccccc1F [Compound 64, (S)-N-((S)-1-cyano-2-((S)-2-oxopyrrolidin-3-yl)ethyl)-5-(2-((2-fluorophenyl)amino)-2-oxoacetyl)-5-azaspiro[2.4]heptane-6-carboxamide]",> 1
9,"O=C[C@H](C[C@@H]1CCNC1=O)NC(=O)[C@@H]1[C@H]2CCC[C@H]2CN1C(=O)C(=O)Nc1ccccc1F [Compound 44, (1S,3aR,6aS)-2-(2-((2-fluorophenyl)amino)-2-oxoacetyl)-N-((S)-1-oxo-3-((S)-2-oxopyrrolidin-3-yl)propan-2-yl)octahydrocyclopenta[c]pyrrole-1-carboxamide]",> 1
10,CC(C)(C)C[C@H](NC(=O)C(=O)Nc1ccccc1C(F)(F)F)C(=O)N[C@@H](CC1CCCNC1=O)C(=O)CO (stereo partly shown) [Compound 96],< 0.05
11,"O=C(N[C@@H](CC1CC1)C(=O)N[C@@H](C[C@@H]1CCCNC1=O)C(=O)CO)C(=O)NC12CCC(F)(CC1)CC2 [Compound 110, N^1-((S)-3-cyclopropyl-1-(((S)-4-hydroxy-3-oxo-1-((S)-2-oxopiperidin-3-yl)butan-2-yl)amino)-1-oxopropan-2-yl)-N^2-(4-fluorobicyclo[2.2.2]octan-1-yl)oxalamide]",> 1
12,"CC(C)CCC(=O)N[C@@H](CC(C)(C)C)C(=O)N[C@H](C#N)C[C@@H]1CCCNC1=O [Compound 136, (S)-N-((S)-1-cyano-2-((S)-2-oxopiperidin-3-yl)ethyl)-4,4-dimethyl-2-(4-methylpentanamido)pentanamide]",> 1
13,"CC(C)C[C@H](NC(=O)C(=O)Nc1ccccc1F)C(=O)N[C@@H](C[C@@H]1CCNC1=O)C(=O)COC(=O)C1CCN(C2CCCCC2)CC1 [Compound 6, (S)-3-((S)-2-(2-((2-fluorophenyl)amino)-2-oxoacetamido)-4-methylpentanamido)-2-oxo-4-((S)-2-oxopyrrolidin-3-yl)butyl 1-cyclohexylpiperidine-4-carboxylate]",0.05 to 0.2
14,"CCCCCCC(=O)OCC(=O)[C@H](C[C@@H]1CCNC1=O)NC(=O)[C@H](CC(C)C)NC(=O)c1cc2c(OC)cccc2[nH]1 [Compound 119, (S)-3-((S)-2-(4-methoxy-1H-indole-2-carboxamido)-4-methylpentanamido)-2-oxo-4-((S)-2-oxopyrrolidin-3-yl)butyl heptanoate]",0.05 to 0.2
15,"Cc1ccccc1NC(=O)C(=O)N[C@@H](CC(C)C)C(=O)N[C@H](C=O)C[C@@H]1CCNC1=O [Compound 38, N^1-((S)-4-methyl-1-oxo-1-(((S)-1-oxo-3-((S)-2-oxopyrrolidin-3-yl)propan-2-yl)amino)pentan-2-yl)-N^2-(o-tolyl)oxalamide]",0.05 to 0.2
16,"COc1cccc2[nH]c(C(=O)N[C@@H](CC(C)C)C(=O)N[C@@H](C[C@@H]3CCNC3=O)C(=O)COC(=O)C3CCN(C4CCCCC4)CC3)cc12 [Compound 123, (S)-3-((S)-2-(4-methoxy-1H-indole-2-carboxamido)-4-methylpentanamido)-2-oxo-4-((S)-2-oxopyrrolidin-3-yl)butyl 1-cyclohexylpiperidine-4-carboxylate]",0.5 to 1
17,"CC(C)C[C@H](NC(=O)C(=O)Nc1ccccc1F)C(=O)N[C@H](C=O)C[C@@H]1CCNC1=O [Compound 39, N^1-(2-fluorophenyl)-N^2-((S)-4-methyl-1-oxo-1-(((S)-1-oxo-3-((S)-2-oxopyrrolidin-3-yl)propan-2-yl)amino)pentan-2-yl)oxalamide]",0.05 to 0.2
18,"COc1cccc2[nH]c(C(=O)N[C@@H](CC(C)C)C(=O)N[C@@H](C[C@@H]3CCNC3=O)C(=O)CO)cc12 [Compound 1, N-((S)-1-(((S)-4-hydroxy-3-oxo-1-((S)-2-oxopyrrolidin-3-yl)butan-2-yl)amino)-4-methyl-1-oxopentan-2-yl)-4-methoxy-1H-indole-2-carboxamide]",0.2 to 0.5
19,CC(C)(C)C[C@H](NC(=O)C(=O)Nc1cccc(OC(F)(F)F)c1)C(=O)N[C@@H](CC1CCCNC1=O)C(=O)CO (stereo partly shown) [Compound 95],< 0.05
20,Cc1ccc(C2(NC(=O)C(=O)N[C@@H](CC(C)C)C(=O)N[C@@H](C[C@@H]3CCNC3=O)C(=O)CO)CC2)cc1 [Compound 23],0.5 to 1
